Assay results: US10865397B2, “Recombinant polynucleotide sequence for producing astaxanthin and uses thereof” (ACADEMIA SINICA, priority 2014, dated 2020)

Columns and labels:
[1] = tested on: Cz30 strain; test: Stress tolerance test: pretreated cells, series dilution on YPG plate
From the text: (§1) For the biorefinery application, plant biomass is one of the most abundant renewable resources on earth and is considered an essential building block for developing a sustainable society. Renewable biological resources from plant can be converted into bioproducts, such as biofuels, biochemicals, biolubricants, and biodegradable materials. To utilize the sugars contained in plant biomass, many available treatment techniques, including acid hydrolysis, steam explosion, ammonia fiber expansion, organosolv, sulfite pretreatment, alkaline wet oxidation, ozone pretreatment, and enzyme treatment, are employed for lignocellulose destruction. Toxins produced during acid and steam pretreatment of lignocellulose cover a large range of substances, such as furfural and hydroxymethylfurfural from hemicellulose and cellulose, alcohols and aldehydes from lignin, and heavy metals from bioreactor. Accordingly, the second stress factor examined was furfural treatment.
(§2) WT and Cz30 strains were further tested for ethanol and butanol treatments.

[2] = tested on: WT strain; test: as above; settings: colonies on plate (FIG. 27B)
From the text: as §1, §2

[3] = tested on: Cz30 strain
Method: (§3) After 24 hours, the cells were inoculated into the YPG plate with a series dilution and cultivated for another 48 hours.

[4] = tested on: WT strain; settings: 2, 4, or 6% ethanol in YPG medium, 24 hours
Method: as §3

[5] = 3′S, 3′S compared with the 3′R3′R, 3′R stereoisomer; cited from earlier work

## O=Cc1ccco1 [furfural]
[1]; Cz30 strain, colonies on plate (FIG. 27B)
  furfural treatment tolerated: 100 mM
[2]
  furfural treatment tolerated: 80 mM

## CC(C)CO [isobutanol]
[1]
  colony growth on YPG plate after treatment: Only some Cz30 colonies could grow

## CCO [ethanol]
[1]
  colony growth on YPG plate after treatment: Only some Cz30 colonies could grow
[3]; 2, 4, or 6% ethanol in YPG medium, 24 hours
  cell growth in presence of ethanol: weakly affected
[4]
  cell growth in presence of ethanol: significantly repressed

## CC1=C(/C=C/C(C)=C/C=C/C(C)=C/C=C/C=C(C)/C=C/C=C(C)/C=C/C2=C(C)C(=O)[C@@H](O)CC2(C)C)C(C)(C)C[C@@H](O)C1=O [3′R3′R, 3′S mesoform, 3′R3′R, 3′S astaxanthin]
[5]
  antioxidant activity of astaxanthin stereoisomers: no antioxidant activity

## CC1=C(/C=C/C(C)=C/C=C/C(C)=C/C=C/C=C(C)/C=C/C=C(C)/C=C/C2=C(C)C(=O)[C@@H](O)CC2(C)C)C(C)(C)C[C@H](O)C1=O (single isomer, unassigned; stereoisomer 3) [3′S, 3′S stereoisomer, 3′S, 3′S-astaxanthin]
[5]
  antioxidant activity of astaxanthin stereoisomers: higher antioxidant activity

## CC(=O)O[C@@]12CO[C@@H]1C[C@H](O)[C@@]1(C)C(=O)[C@H](O)C3=C(C)[C@@H](O)C[C@@](O)([C@@H](OC(=O)c4ccccc4)[C@H]21)C3(C)C [10-deacetyl baccatin III]
[1]; 3.2 mM 10-deacetyl baccatin III in 12% ethanol, 24 hours, then 48 hours on plate, Cz30 versus WT
  colony growth on YPG plate after pretreatment: Cz30 colonies grew better than WT
[3]; 0.8 mM with 4% ethanol or 1.2 mM with 6% ethanol versus 4% or 6% ethanol, WT and Cz30 (FIG. 29B)
  damage to cultured yeasts compared with ethanol alone: higher degree of damage
[3]; 0.4-1.2 mM in YPG medium, Cz30 versus WT
  growth in medium containing 10-deacetyl baccatin III: Cz30 grew better than WT
